From ChEMBL document CHEMBL4732050, “1,2,4-Oxadiazole topsentin analogs as staphylococcal biofilm inhibitors targeting the bacterial transpeptidase sortase A” (Eur J Med Chem, 2021)

Experiments:
Staphylococcus aureus [1] = assay: Antibiofilm activity against Staphylococcus aureus ATCC 6538 at 100 ug/ml after 24 hrs by crystal violet staining based assay; assay type: functional
[2] = Inhibition of Staphylococcus aureus ATCC 25923 sortase A by FRET assay
Staphylococcus aureus [3] = assay: Antibacterial activity against Staphylococcus aureus ATCC 6538 after 24 hrs by microdilution method; assay type: functional
Escherichia coli [4] = assay: Antibacterial activity against Escherichia coli ATCC 25922 after 24 hrs by microdilution method; assay type: functional
HS27 = assay: Cytotoxicity against human Hs27 cells assessed as cell viability at 0.1 to 1 uM after 72 hrs by SRB assay; assay type: cell-based; conditions: hs27, 72 h, dose 0.1-1 µM
Pseudomonas aeruginosa [5] = assay: Antibacterial activity against Pseudomonas aeruginosa ATCC 15442 after 24 hrs by microdilution method; assay type: functional
Escherichia coli [6] = assay: Antibiofilm activity against Escherichia coli ATCC 25922 at 100 ug/ml after 24 hrs by crystal violet staining based assay; assay type: functional
Pseudomonas aeruginosa [7] = assay: Antibiofilm activity against Pseudomonas aeruginosa ATCC 15442 after 24 hrs by crystal violet staining based assay; assay type: functional
Staphylococcus aureus [8] = assay: Antibiofilm activity against Staphylococcus aureus ATCC 25923 after 24 hrs by crystal violet staining based assay; assay type: functional
Staphylococcus aureus [9] = assay: Antibacterial activity against Staphylococcus aureus ATCC 25923 after 24 hrs by microdilution method; assay type: functional
Escherichia coli [10] = assay: Antibiofilm activity against Escherichia coli ATCC 25922 after 24 hrs by crystal violet staining based assay; assay type: functional
Staphylococcus aureus [11] = assay: Antibiofilm activity against Staphylococcus aureus ATCC 6538 after 24 hrs by crystal violet staining based assay; assay type: functional
Pseudomonas aeruginosa [12] = assay: Antibiofilm activity against Pseudomonas aeruginosa ATCC 15442 at 100 ug/ml after 24 hrs by crystal violet staining based assay; assay type: functional
Staphylococcus aureus [13] = assay: Antibiofilm activity against Staphylococcus aureus ATCC 25923 at 100 ug/ml after 24 hrs by crystal violet staining based assay; assay type: functional

Compound	IC50 [2] [µM]	MIC (Staphylococcus aureus [3]) [µg/mL]	MIC (Escherichia coli [4]) [µg/mL]	MIC (Pseudomonas aeruginosa [5]) [µg/mL]	MIC (Staphylococcus aureus [9]) [µg/mL]	inhibition at 100 µg/mL (Staphylococcus aureus [1]) [%]	Activity (HS27)	inhibition at 100 µg/mL (Escherichia coli [6]) [%]	MBIC50 (Pseudomonas aeruginosa [7]) [µM]	MBIC50 (Staphylococcus aureus [8]) [µM]	MBIC50 (Escherichia coli [10]) [µM]	MBIC50 (Staphylococcus aureus [11]) [µM]	inhibition at 100 µg/mL (Pseudomonas aeruginosa [12]) [%]	inhibition at 100 µg/mL (Staphylococcus aureus [13]) [%]
COc1ccc2c(c1)c(C(=O)c1nc(-c3cn(C)c4ccc(Cl)cc34)no1)cn2C	–	> 100	> 100	> 100	> 100	< 15	–	< 15	–	–	–	–	< 15	< 15
COc1ccc2c(c1)c(-c1noc(C(=O)c3cn(C)c4ccc(F)cc34)n1)cn2C	–	> 100	> 100	> 100	> 100	< 15	–	< 15	52.1	14.8	–	–	–	–
COc1ccc2c(c1)c(C(=O)c1nc(-c3cn(C)c4ccccc34)no1)cn2C	–	> 100	> 100	> 100	> 100	< 15	–	–	30	33.1	55.4	–	–	–
Cn1cc(C(=O)c2nc(-c3cn(C)c4ccc(F)cc34)no2)c2ccccc21	–	> 100	> 100	> 100	> 100	< 15	–	< 15	24	30.4	–	–	–	–
Cn1cc(C(=O)c2nc(-c3cn(C)c4ccc(Br)cc34)no2)c2cc(F)ccc21	2.2	> 100	> 100	> 100	> 100	< 15	Non-Toxic	< 15	–	9.7	–	–	< 15	–
Cn1cc(C(=O)c2nc(-c3cn(C)c4ccccc34)no2)c2cc(Br)ccc21	–	> 100	> 100	> 100	> 100	< 15	–	–	39.3	39.5	39.3	–	–	–
COc1ccc2c(c1)c(C(=O)c1nc(-c3cn(C)c4ccc(OC)cc34)no1)cn2C	2.2	> 100	> 100	> 100	> 100	< 15	Non-Toxic	< 15	74.7	2.2	–	–	–	–

Second part, led by results:

IC50 [2] [µM]	MIC (Staphylococcus aureus [3]) [µg/mL]	MIC (Escherichia coli [4]) [µg/mL]	MIC (Pseudomonas aeruginosa [5]) [µg/mL]	MIC (Staphylococcus aureus [9]) [µg/mL]	Compound	inhibition at 100 µg/mL (Staphylococcus aureus [1]) [%]	Activity (HS27)	inhibition at 100 µg/mL (Escherichia coli [6]) [%]	MBIC50 (Pseudomonas aeruginosa [7]) [µM]	MBIC50 (Staphylococcus aureus [8]) [µM]	MBIC50 (Escherichia coli [10]) [µM]	MBIC50 (Staphylococcus aureus [11]) [µM]	inhibition at 100 µg/mL (Pseudomonas aeruginosa [12]) [%]	inhibition at 100 µg/mL (Staphylococcus aureus [13]) [%]
10.4	> 100	> 100	> 100	> 100	Cn1cc(C(=O)c2nc(-c3cn(C)c4ccc(F)cc34)no2)c2cc(F)ccc21	< 15	Non-Toxic	< 15	49.7	0.7	–	–	–	–
–	> 100	> 100	> 100	> 100	Cn1cc(C(=O)c2nc(-c3cn(C)c4ccccc34)no2)c2ccccc21	–	–	–	36.7	14	72.1	53.6	–	–
–	> 100	> 100	> 100	> 100	COc1ccc2c(c1)c(C(=O)c1nc(-c3cn(C)c4ccc(Br)cc34)no1)cn2C	< 15	–	< 15	–	41	–	–	< 15	–
–	> 100	> 100	> 100	> 100	Cn1cc(C(=O)c2nc(-c3cn(C)c4ccc(Cl)cc34)no2)c2cc(Br)ccc21	< 15	–	< 15	53.9	27.7	–	–	–	–
–	> 100	> 100	> 100	> 100	Cn1cc(C(=O)c2nc(-c3cn(C)c4ccc(Br)cc34)no2)c2ccccc21	< 15	–	< 15	78.6	–	–	–	–	< 15
–	> 100	> 100	> 100	> 100	COc1ccc2c(c1)c(C(=O)c1nc(-c3cn(C)c4ccc(F)cc34)no1)cn2C	< 15	–	< 15	11.6	39.6	–	–	–	–
–	> 100	> 100	> 100	> 100	COc1ccc2c(c1)c(-c1noc(C(=O)c3cn(C)c4ccccc34)n1)cn2C	< 15	–	< 15	47.4	–	–	–	–	< 15
–	> 100	> 100	> 100	> 100	COc1ccc2c(c1)c(-c1noc(C(=O)c3cn(C)c4ccc(Br)cc34)n1)cn2C	< 15	–	< 15	28.1	19.1	–	–	–	–
–	> 100	> 100	> 100	> 100	Cn1cc(C(=O)c2nc(-c3cn(C)c4ccc(F)cc34)no2)c2cc(Br)ccc21	< 15	–	–	–	29.6	45.7	–	< 15	–
–	> 100	> 100	> 100	> 100	Cn1cc(C(=O)c2nc(-c3cn(C)c4ccc(Cl)cc34)no2)c2ccccc21	< 15	–	–	53.5	47.6	59.6	–	–	–
